The source of these data is patent US6806229B1, “Herbicidally active pyridine sulfonyl urea derivatives” (LG Life Sciences, priority 2003, dated 2004).

What all share (format): in vivo
In data set [1] the test system is Oryza sativa. Put plainly: Phytotoxicity to rice (direct-seeded and transplanted) in paddy condition, greenhouse pot test. The note with it: visual rating after two weeks; for Phytotoxicity, Oryza sativa, Seed: direct-seeded rice, treated 5 days after sowing; for Phytotoxicity, Oryza sativa, Transplanted: transplanted rice seedlings, treated 5 days after transplanting. An excerpt: (§1) Pots having a surface area of 150 cm^2 were filled with a small amount of fertilizer and sterilized paddy field soil in a muddy state with a depth of 5 cm. Five (5) seeds of pre-germinated rice were directly sown on the soil surface and three (3) rice seedlings (2˜3 leaves) prepared in advance were transplanted in a depth of 2 cm in each pot. In another pot, seeds of barnyardgrass were sown and incorporated into the surface layer of soil. After sowing and transplanting of rice plant and sowing of barnyardgrass, the pots were flooded with water 3 cm deep and kept in a greenhouse. The rice plant was treated with the chemicals 5 days after sowing or transplanting, and barnyardgrass was treated with the chemicals at the pre-emergence (5 days after from sowing) and post-emergence stage (at the three-leaf stage, usually after 15 days from sowing).
(§2) Suitable herbicidal compositions were prepared by mixing and dissolving 1 part by weight of the active compound with 5 parts by weight of acetone and 1 part by weight of alkylaryl polyglycolether as an emulsifier and then diluting with water to the predetermined concentration. Application was made by dropping the herbicide solutions onto the water surface of the pots.

Data set [2] has as its system Sagittaria pygmaea (SAGPY). As to the kind of experiment: Weed spectrum in paddy field, SAGPY. The conditions noted are these: 20 g/ha; tubers planted 1 cm deep; applied after 5 days; observed two weeks. The procedure:
as §2
(§3) Pots having a surface area of 500 cm^2 were filled with the soil in a muddy state as mentioned above. Seeds of annual weeds such as Monochoria vaginaiis (MOOVA), Lindernia procumbens (LIDPR), Rotala indica (ROTIN), Scirpus jumcoides (SCPJU), etc. were sown on the surface layer of soil, and then were planted tubers of perennial weeds such as Cyperus serotinus (CYPSE) and Sagittaria pygmaea (SAGPY) in a depth of 1 cm, and Eleocharis kuroguwai (ELOKU) and Sagittaria trifolia (SAGTR) in a depth of 4 cm. After 5 days, the chemicals were formulated as mentioned above and applied by dropping to the water surface of the pots.

Data set [3] relates to Rotala indica (ROTIN). Put plainly: Weed spectrum in paddy field, ROTIN. The note with it: 20 g/ha; applied 5 days after sowing; observed two weeks. The protocol:
as §2, §3

The subject of data set [4] is Echinochloa crus-galli. As to the kind of experiment: Herbicidal activity to barnyardgrass in paddy condition, pre- and post-emergence, greenhouse pot test. The note with it: Echinochloa crus-galli, 336 h, visual rating after two weeks.
Source text: as §1, §2

The subject of data set [5] is Lindernia procumbens (LIDPR). As to the kind of experiment: Weed spectrum in paddy field, LIDPR. The conditions noted are these: 20 g/ha; applied 5 days after sowing; observed two weeks. The procedure:
as §2, §3

Data set [6] concerns Sagittaria trifolia (SAGTR). As to the kind of experiment: Weed spectrum in paddy field, SAGTR. The conditions noted are these: 20 g/ha; tubers planted 4 cm deep; applied after 5 days; observed two weeks. The protocol:
as §2, §3

The test system of data set [7] is Cyperus serotinus (CYPSE). Put plainly: Weed spectrum in paddy field, CYPSE. The note with it: 20 g/ha; tubers planted 1 cm deep; applied after 5 days; observed two weeks. The protocol:
as §2, §3

In data set [8] the test system is Monochoria vaginaiis (MOOVA). Put plainly: Weed spectrum in paddy field, MOOVA. The note with it: 20 g/ha; applied 5 days after sowing; observed two weeks. The procedure:
as §2, §3

Data set [9] relates to Eleocharis kuroguwai (ELOKU). Put plainly: Weed spectrum in paddy field, ELOKU. The conditions noted are these: 20 g/ha; tubers planted 4 cm deep; applied after 5 days; observed two weeks. The procedure:
as §2, §3

The subject of data set [10] is Scirpus jumcoides (SCPJU). As to the kind of experiment: Weed spectrum in paddy field, SCPJU. The note with it: 20 g/ha; applied 5 days after sowing; observed two weeks. The procedure: as §2, §3
The mark [11] stands for this setting: 80 g/ha, 0 = none, 100 = complete death.
[12] abbreviates: post-emergence, three-leaf stage, read-out: Herbicidal activity, Echinochloa crus-galli, Post-emergence (3-Leaf stage).
The mark [13] stands for this setting: pre-emergence (5 days after sowing), read-out: Herbicidal activity, Echinochloa crus-galli, Pre-emergence.
Setting [14] is: pre-emergence (5 days after sowing), 0 = no activity, 100 = complete death, read-out: Herbicidal activity, Echinochloa crus-galli, Pre-emergence.

Like-named read-outs stand apart in the source and are kept apart here.

For `COCC(=O)O[C@H](c1ncccc1S(=O)(=O)NC(=O)Nc1nc(OC)cc(OC)n1)[C@H](C)F` [Com. 2], the “Phytotoxicity, Oryza sativa, Seed” value in data set [1] (10 g/ha) is 0%; in [1] (20 g/ha), 0%; in data set [1] (40 g/ha) it was 20%; in data set [1] (setting [11]), 30%. For the same compound, the “Phytotoxicity, Oryza sativa, Transplanted” value in data set [1] (10 g/ha) came to 0%; in [1] (20 g/ha) it was 0%; in [1] (40 g/ha) it was 10%; in data set [1] (80 g/ha), 10%. Besides, in [2], the “Weed spectrum, Perennial weeds, SAGPY” value was 95. For the same compound, in [3], the “Weed spectrum, Annual weeds, ROTIN” value is listed as 100. Also, the pest or weed control at 5 g/ha worked out at 50% in data set [4] (setting [12]) and 60% in data set [4] (setting [13]). Besides, the pest or weed control at 10 g/ha in data set [4] (setting [12]) came to 90%; in data set [4] (setting [13]), 100%. In addition, the pest or weed control at 20 g/ha in [4] (setting [12]) and in [4] (setting [13]) was 100% each time. The pest or weed control at 30 g/ha in data set [4] (setting [12]) and in data set [4] (setting [14]) was 100% throughout. Besides, the “Weed spectrum, Annual weeds, LIDPR” value in data set [5] was 100. Also, the “Weed spectrum, Perennial weeds, SAGTR” value in [6] turned out to be 90. Besides, the “Weed spectrum, Perennial weeds, CYPSE” value in data set [7] was 100. Also, in data set [8], the “Weed spectrum, Annual weeds, MOOVA” value came out at 100. In data set [9], the “Weed spectrum, Perennial weeds, ELOKU” value came to 95. For the same compound, the “Weed spectrum, Annual weeds, SCPjU” value in [10] stood at 100.
Turning to `COCCC(=O)O[C@H](c1ncccc1S(=O)(=O)NC(=O)Nc1nc(OC)cc(OC)n1)[C@H](C)F` [Com. 4], the “Phytotoxicity, Oryza sativa, Seed” value in data set [1] (10 g/ha) turned out to be 0%; in data set [1] (20 g/ha), 0%; in data set [1] (40 g/ha), 20%; in data set [1] (setting [11]), 30%. The “Phytotoxicity, Oryza sativa, Transplanted” value in data set [1] (10 g/ha) is 0%; in [1] (20 g/ha), 0%; in data set [1] (40 g/ha), 10%; in data set [1] (80 g/ha) it was 20%. Besides, the “Weed spectrum, Perennial weeds, SAGPY” value in [2] came out at 90. In addition, in [3], the “Weed spectrum, Annual weeds, ROTIN” value amounted to 100. The pest or weed control at 5 g/ha in data set [4] (setting [12]) and in [4] (setting [13]) was 60% each time. Besides, the pest or weed control at 10 g/ha came to 90% in data set [4] (setting [12]) and 95% in [4] (setting [13]). For the same compound, the pest or weed control at 20 g/ha in data set [4] (setting [12]) and in data set [4] (setting [13]) was 100% in each case. Also, the pest or weed control at 30 g/ha in data set [4] (setting [12]) and in data set [4] (setting [14]) was 100% in each case. Further, the “Weed spectrum, Annual weeds, LIDPR” value in [5] came to 100. In data set [6], the “Weed spectrum, Perennial weeds, SAGTR” value stood at 85. Also, in data set [7], the “Weed spectrum, Perennial weeds, CYPSE” value came out at 100. Also, the “Weed spectrum, Annual weeds, MOOVA” value in [8] is reported as 100. For the same compound, in data set [9], the “Weed spectrum, Perennial weeds, ELOKU” value was determined as 95. In addition, in data set [10], the “Weed spectrum, Annual weeds, SCPjU” value is given as 100.
